According to patent US6534534B1, “Pharmaceutical composition active in reducing production of MCP-1 protein” (Aziende Chimiche Riunite Angelini Francesco A.C.R.A.F. …, priority 1997, dated 2003):
Read-outs that look alike come from different tables or passages of the source.

How the values were obtained:
mouse air pouch = conditions: for Exudate / Leucocytes: bindarit 0.5% in diet for 18 days
Experimental: The action of bindarit was studied in an experimental model in the mouse, the said model being characterized by production of MCP-1, cell infiltration and formation of exudate. Mice were fed ad libitum with a standard diet for rodents or with the same diet with addition of bindarit (0.5%) for 18 days. On the twelfth day, under ether anaesthesia, sterile air (5 ml) was injected under the dorsal skin of the mice to form a sac. On the fifteenth day, again under ether anaesthesia, further sterile air (5 ml) was injected into the pre-formed sac. On the eighteenth day, a sterile physiological solution (1 ml) was injected into the sac thus obtained, or an irritant (1 ml). The said irritant was carrageen (1%) or IL-1 (40 ng). After 5 hours for IL-1, or 24 hours for carrageen, the mice were sacrificed by asphyxia with CO2. The exudate which had developed was collected and used for the leucocyte count and for measurement of the mediators produced.

MCP-1 = conditions: for MCP-1: PBMC, LPS 100 ng/ml, 24 hours, supernatant
Experimental: (§1) The capability of bindarit to reduce production of MCP-1 by leucocytes (PBMC) stimulated by LPS was evaluated. White blood cells were isolated by centrifugation on a Ficoll gradient and then stimulated with LPS (100 ng/ml) for 24 hours in the presence or absence of scalar concentrations of bindarit. The supernatant fluid was collected at the end and levels of MCP-1 were measured by means of a specific immunoenzymatic test.

IL-8 = conditions: for IL-8: PBMC, LPS 100 ng/ml, 24 hours, supernatant
Experimental: as §1

[1] = IL-1, share of cells in exudate, bindarit 0.5% in diet

Question: How did the Exudate (mouse air pouch; IL-1 (40 ng), 5 hours) turn out when `CC(C)(OCc1nn(Cc2ccccc2)c2ccccc12)C(=O)O` [Bindarit] was run?
Answer: The Exudate was 1.00 ± 0.01 mL.

Question: What about the Leucocytes (mouse air pouch; IL-1 (40 ng), 5 hours) of the same compound?
Answer: Its Leucocytes is 7.5 ± 2.21.

Question: What about the Monocytes (mouse air pouch; [1]) of the same compound?
Answer: The Monocytes was 6%.

Question: What about the Polymorphonucleates (mouse air pouch; [1]) of the same compound?
Answer: Its Polymorphonucleates is 94%.

Question: And the Exudate (mouse air pouch; carrageen (1%), 24 hours)?
Answer: The Exudate was 0.90 ± 0.08 mL.

Question: And the Leucocytes (mouse air pouch; carrageen (1%), 24 hours)?
Answer: Its Leucocytes is 4.5 ± 0.64.

Question: What about the “number of infiltrated cells (leucocytes) (in words)” value (mouse air pouch; summary of Table 2) of the same compound?
Answer: The value was “significant reduction”.

Question: What about the “volume of exudate collected (in words)” value (mouse air pouch; summary of Table 2) of the same compound?
Answer: Its value is “without presenting a reduction”.

Question: And the “percentage of monocytes attracted in the sac (in words)” value (mouse air pouch; summary of Table 3)?
Answer: Its value is “reduction”.

Question: What about the MCP-1 (MCP-1; bindarit 25 μg/ml) of the same compound?
Answer: Its MCP-1 is 1.5 ± 0.38 ng/mL.

Question: And the MCP-1 (MCP-1; bindarit 50 μg/ml)?
Answer: Its MCP-1 is 1.6 ± 0.18 ng/mL.

Question: What about the MCP-1 (MCP-1; bindarit 100 μg/ml) of the same compound?
Answer: Its MCP-1 is 0.8 ± 0.04 ng/mL.

Question: And the “production of MCP-1 induced by LPS (in words)” value (MCP-1; summary of Table 1)?
Answer: The value was “significantly reduces”.

Question: What about the IL-8 (IL-8; bindarit 25 μg/ml) of the same compound?
Answer: Its IL-8 is 30 ± 5.20 ng/mL.

Question: What about the IL-8 (IL-8; bindarit 50 μg/ml) of the same compound?
Answer: The IL-8 was 37 ± 5.36 ng/mL.

Question: And the IL-8 (IL-8; bindarit 100 μg/ml)?
Answer: The IL-8 was 27 ± 5.8 ng/mL.

Question: What about the “levels of IL-8 produced (in words)” value (IL-8; summary of Table 1) of the same compound?
Answer: Its value is “without substantially influencing”.
